Results reported in PMC5762315, “Inhibition of polo-like kinase 4 (PLK4): a new therapeutic option for rhabdoid tumors and pediatric medulloblastoma” (Oncotarget, 2017).
Values joined by “and” are separate entries in the source; they are usually repeats but may differ in a detail not shown here. Equal values may be shown once.

How the values were obtained:
Assay in all cases: biochemical
Format in all cases: biochemical
[1] = biological target: various kinases (Homo sapiens, UniProt O00418); details: EEF2K
various kinases (Homo sapiens, UniProt O00418), sequence (O00418 whole entry): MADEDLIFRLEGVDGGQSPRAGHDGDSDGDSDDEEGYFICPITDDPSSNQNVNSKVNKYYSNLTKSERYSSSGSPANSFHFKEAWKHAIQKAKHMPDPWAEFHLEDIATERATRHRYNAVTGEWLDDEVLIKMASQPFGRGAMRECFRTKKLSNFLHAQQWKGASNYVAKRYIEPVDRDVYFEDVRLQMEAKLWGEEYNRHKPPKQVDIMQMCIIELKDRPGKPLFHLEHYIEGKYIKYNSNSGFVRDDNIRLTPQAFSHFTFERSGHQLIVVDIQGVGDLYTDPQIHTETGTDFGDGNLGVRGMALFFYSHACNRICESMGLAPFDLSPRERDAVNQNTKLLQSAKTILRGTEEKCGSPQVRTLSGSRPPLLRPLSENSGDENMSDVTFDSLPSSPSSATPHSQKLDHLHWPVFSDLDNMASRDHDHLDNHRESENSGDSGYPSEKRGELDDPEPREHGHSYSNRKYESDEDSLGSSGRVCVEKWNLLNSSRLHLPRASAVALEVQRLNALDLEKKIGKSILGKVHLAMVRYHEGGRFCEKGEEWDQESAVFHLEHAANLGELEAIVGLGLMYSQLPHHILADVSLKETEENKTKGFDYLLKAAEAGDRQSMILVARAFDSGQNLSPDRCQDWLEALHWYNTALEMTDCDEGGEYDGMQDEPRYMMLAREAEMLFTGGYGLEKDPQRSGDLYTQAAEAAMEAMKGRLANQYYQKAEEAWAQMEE

[2] = biological target: various kinases (Homo sapiens, UniProt P00519, G250E); details: ABL1 G250E
[3] = biological target: various kinases (Homo sapiens, UniProt P00533, C797S); details: EGFR (ErbB1) C797S
[4] = biological target: various kinases (Homo sapiens, UniProt P05129); details: kinase PRKCG (PKC gamma); ZLYTE
[5] = biological target: various kinases (Homo sapiens, UniProt P06239); details: LCK
[6] = biological target: various kinases (Homo sapiens, UniProt P12931); details: kinase SRC; ZLYTE
various kinases (Homo sapiens, UniProt P12931), sequence (P12931 whole entry): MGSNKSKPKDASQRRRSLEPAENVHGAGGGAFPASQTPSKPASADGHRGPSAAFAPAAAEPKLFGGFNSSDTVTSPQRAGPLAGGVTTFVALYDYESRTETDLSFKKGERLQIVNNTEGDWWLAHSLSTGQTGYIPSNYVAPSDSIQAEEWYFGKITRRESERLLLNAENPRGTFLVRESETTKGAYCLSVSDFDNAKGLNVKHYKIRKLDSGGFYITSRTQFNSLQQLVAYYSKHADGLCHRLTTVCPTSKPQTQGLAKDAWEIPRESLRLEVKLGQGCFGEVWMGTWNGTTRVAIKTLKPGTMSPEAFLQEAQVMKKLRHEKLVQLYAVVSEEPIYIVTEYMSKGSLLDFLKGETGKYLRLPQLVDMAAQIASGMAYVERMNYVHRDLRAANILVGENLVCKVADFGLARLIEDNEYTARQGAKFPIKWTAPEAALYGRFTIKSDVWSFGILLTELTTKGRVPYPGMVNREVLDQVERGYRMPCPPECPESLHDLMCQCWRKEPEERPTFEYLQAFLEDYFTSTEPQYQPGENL

[7] = biological target: various kinases (Homo sapiens, UniProt P15056, V600E); details: BRAF V599E
[8] = biological target: various kinases (Homo sapiens, UniProt P16234); details: PDGFRA (PDGFR alpha)
[9] = biological target: various kinases (Homo sapiens, UniProt P22455); details: FGFR4
[10] = biological target: various kinases (Homo sapiens, UniProt P29376); details: LTK (TYK1)
[11] = biological target: various kinases (Homo sapiens, UniProt P51812); details: kinase RPS6KA3 (RSK2); ZLYTE
various kinases (Homo sapiens, UniProt P51812), sequence (P51812 whole entry): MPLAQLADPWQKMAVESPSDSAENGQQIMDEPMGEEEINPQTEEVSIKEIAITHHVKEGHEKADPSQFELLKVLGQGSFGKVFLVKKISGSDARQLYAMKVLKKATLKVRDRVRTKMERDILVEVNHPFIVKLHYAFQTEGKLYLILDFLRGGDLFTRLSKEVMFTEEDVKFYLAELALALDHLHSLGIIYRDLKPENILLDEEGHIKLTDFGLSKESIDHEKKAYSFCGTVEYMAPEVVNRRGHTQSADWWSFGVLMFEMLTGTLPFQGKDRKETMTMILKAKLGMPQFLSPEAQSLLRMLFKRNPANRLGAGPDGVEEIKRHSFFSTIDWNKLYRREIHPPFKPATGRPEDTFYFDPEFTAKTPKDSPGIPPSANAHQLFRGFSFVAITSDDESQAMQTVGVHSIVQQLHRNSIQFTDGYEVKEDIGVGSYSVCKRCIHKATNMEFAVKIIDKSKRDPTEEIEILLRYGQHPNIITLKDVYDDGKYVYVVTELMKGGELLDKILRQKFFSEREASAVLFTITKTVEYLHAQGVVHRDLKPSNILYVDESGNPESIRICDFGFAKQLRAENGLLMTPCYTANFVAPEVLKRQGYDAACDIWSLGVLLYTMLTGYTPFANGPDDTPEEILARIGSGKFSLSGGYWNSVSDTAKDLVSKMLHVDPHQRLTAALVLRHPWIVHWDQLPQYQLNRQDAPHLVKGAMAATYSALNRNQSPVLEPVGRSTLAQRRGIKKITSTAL

[12] = biological target: various kinases (Homo sapiens, UniProt P51957); details: NEK4
[13] = biological target: various kinases (Homo sapiens, UniProt P54764); details: EPHA4
[14] = biological target: various kinases (Homo sapiens, UniProt Q14164); details: IKBKE (IKK epsilon)
[15] = biological target: various kinases (Homo sapiens, UniProt Q16512); details: kinase PKN1 (PRK1); ZLYTE
various kinases (Homo sapiens, UniProt Q16512), sequence (Q16512 whole entry): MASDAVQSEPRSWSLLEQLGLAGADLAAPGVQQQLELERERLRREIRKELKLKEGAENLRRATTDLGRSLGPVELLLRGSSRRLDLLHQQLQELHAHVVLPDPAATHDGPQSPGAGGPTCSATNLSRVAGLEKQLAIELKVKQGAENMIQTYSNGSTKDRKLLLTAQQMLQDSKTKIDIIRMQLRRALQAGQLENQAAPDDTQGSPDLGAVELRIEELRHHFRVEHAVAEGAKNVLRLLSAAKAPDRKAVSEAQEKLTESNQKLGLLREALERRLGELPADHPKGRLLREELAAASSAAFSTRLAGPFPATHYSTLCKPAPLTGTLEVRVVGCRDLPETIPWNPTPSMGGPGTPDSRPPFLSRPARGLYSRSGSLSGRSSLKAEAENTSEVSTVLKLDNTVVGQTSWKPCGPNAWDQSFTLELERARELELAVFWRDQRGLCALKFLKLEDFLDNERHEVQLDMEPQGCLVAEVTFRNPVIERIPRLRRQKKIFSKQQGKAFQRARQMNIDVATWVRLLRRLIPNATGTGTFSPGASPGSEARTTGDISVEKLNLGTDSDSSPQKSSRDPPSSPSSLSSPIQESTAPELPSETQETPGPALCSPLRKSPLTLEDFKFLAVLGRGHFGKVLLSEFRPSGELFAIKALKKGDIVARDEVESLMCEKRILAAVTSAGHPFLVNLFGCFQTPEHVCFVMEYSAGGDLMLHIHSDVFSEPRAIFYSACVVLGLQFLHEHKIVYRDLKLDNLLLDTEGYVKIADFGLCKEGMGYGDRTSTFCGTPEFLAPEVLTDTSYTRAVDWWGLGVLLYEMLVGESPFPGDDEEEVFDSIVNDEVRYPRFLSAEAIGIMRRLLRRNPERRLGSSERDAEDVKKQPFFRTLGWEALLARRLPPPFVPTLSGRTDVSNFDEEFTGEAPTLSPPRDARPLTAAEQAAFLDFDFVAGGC

[16] = biological target: various kinases (Homo sapiens, UniProt Q6DT37); details: CDC42 BPG (MRCKG)
[17] = biological target: various kinases (Homo sapiens, UniProt Q8IW41); details: MAPKAPK5 (PRAK)
[18] = biological target: various kinases (Homo sapiens, UniProt Q8N568); details: DCAMKL2 (DCK2)
various kinases (Homo sapiens, UniProt Q8N568), sequence (Q8N568 whole entry): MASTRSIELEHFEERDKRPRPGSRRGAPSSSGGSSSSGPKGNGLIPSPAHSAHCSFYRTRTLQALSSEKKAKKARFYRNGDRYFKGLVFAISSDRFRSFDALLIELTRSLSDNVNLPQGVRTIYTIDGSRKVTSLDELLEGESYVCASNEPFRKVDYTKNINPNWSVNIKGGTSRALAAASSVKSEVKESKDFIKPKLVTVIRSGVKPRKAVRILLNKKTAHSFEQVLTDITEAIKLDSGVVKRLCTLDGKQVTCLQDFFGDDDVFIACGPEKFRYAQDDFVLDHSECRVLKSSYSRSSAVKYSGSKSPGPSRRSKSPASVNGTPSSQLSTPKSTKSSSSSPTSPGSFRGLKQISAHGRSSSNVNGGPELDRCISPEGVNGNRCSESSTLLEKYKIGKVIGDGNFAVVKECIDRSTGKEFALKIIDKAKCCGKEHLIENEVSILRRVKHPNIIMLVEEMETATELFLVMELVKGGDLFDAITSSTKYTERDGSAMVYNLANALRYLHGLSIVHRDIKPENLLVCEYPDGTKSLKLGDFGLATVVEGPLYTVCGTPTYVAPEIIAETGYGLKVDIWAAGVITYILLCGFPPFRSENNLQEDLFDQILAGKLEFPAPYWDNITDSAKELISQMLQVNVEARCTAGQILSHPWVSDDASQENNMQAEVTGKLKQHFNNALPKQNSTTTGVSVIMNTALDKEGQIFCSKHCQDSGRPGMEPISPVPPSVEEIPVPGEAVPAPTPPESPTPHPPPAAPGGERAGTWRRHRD

[19] = biological target: T1, various kinases (Homo sapiens, UniProt Q9BXA7); details: kinase STK22D (TSSK1); ZLYTE
T1 sequence (Q9BXA7 1-367): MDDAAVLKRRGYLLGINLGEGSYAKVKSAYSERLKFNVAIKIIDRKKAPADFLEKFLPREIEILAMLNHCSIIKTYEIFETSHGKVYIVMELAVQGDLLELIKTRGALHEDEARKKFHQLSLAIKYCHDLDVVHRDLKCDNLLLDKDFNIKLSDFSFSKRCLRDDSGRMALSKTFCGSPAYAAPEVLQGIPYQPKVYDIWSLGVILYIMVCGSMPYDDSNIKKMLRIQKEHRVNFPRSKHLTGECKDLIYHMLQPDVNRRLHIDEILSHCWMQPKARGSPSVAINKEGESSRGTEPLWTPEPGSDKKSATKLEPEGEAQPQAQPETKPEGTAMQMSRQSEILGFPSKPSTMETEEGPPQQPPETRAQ

[20] = biological target: various kinases (Homo sapiens, UniProt Q9HC98); details: NEK6
[21] = biological target: various kinases (Homo sapiens, UniProt Q9NR20); details: DYRK4
[22] = biological target: T2, various kinases (Homo sapiens, UniProt Q9UHD2); details: kinase TBK1; ZLYTE
T2 sequence (Q9UHD2 1-729): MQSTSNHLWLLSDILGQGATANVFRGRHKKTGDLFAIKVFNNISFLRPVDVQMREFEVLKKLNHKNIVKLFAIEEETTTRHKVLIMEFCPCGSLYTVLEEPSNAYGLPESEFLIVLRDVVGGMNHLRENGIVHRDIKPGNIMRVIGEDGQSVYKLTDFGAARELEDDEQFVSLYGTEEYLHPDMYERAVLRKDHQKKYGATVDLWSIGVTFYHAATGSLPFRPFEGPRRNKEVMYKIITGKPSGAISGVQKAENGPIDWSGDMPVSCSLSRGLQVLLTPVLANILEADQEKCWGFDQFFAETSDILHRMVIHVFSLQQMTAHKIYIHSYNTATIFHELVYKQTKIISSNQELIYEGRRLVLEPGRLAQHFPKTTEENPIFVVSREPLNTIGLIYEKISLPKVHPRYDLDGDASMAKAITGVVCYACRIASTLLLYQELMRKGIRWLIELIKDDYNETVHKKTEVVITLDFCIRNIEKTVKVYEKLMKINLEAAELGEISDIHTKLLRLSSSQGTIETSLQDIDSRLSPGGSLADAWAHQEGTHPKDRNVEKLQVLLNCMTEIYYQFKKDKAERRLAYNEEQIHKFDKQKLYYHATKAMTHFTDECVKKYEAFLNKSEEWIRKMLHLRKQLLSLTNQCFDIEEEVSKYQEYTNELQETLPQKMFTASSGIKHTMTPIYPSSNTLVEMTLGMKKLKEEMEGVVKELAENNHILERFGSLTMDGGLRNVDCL

[23] = biological target: various kinases (Homo sapiens, UniProt Q9UQM7); details: CAMK2A (CaMKII alpha)
[24] = biological target: various kinases (Homo sapiens, UniProt Q9Y6M4); details: CSNK1G3 (CK1 gamma 3)
various kinases (Homo sapiens, UniProt Q9Y6M4), sequence (Q9Y6M4 whole entry): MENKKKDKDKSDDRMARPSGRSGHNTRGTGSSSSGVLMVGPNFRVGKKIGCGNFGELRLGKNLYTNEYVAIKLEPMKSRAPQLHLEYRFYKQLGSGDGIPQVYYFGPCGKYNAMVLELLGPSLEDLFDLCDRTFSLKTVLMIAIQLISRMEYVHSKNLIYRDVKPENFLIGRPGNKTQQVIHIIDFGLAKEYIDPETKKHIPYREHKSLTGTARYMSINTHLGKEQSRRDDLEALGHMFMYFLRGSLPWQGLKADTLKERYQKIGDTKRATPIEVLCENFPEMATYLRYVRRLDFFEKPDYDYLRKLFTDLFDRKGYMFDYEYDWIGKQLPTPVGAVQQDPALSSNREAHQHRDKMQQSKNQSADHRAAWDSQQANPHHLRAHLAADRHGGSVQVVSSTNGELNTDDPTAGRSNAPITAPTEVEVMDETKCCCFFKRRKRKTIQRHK

COc1ccc2c(c1)[C@]1(C[C@H]1c1ccc3c(/C=C/c4ccc(CN5C[C@@H](C)O[C@@H](C)C5)cc4)n[nH]c3c1)C(=O)N2 [CFI-400945]
% Inhibition [1]: 2% and 3% | % Inhibition [2]: 45% and 42% | % Inhibition [3]: 11% and 5% | % Inhibition Average [4]: -5% | % Inhibition Duplicate #1 [4]: -13% | % Inhibition Duplicate #2 [4]: 3% | % Inhibition [5]: 39% and 40% | % Inhibition Average [6]: 13% | % Inhibition Duplicate #1 [6]: 13% | % Inhibition Duplicate #2 [6]: 13% | % Inhibition [7]: 12% | % Inhibition [8]: 3% and 2% | % Inhibition [9]: 10% and 16% | % Inhibition [10]: 68% | % Inhibition Average [11]: 2% | % Inhibition Duplicate #1 [11]: 1% | % Inhibition Duplicate #2 [11]: 2% | % Inhibition [12]: 3% and 1% | % Inhibition [13]: 13% and 8% | % Inhibition [14]: -1% and 1% | % Inhibition Average [15]: 20% | % Inhibition Duplicate #1 [15]: 27% | % Inhibition Duplicate #2 [15]: 13% | % Inhibition [16]: 0% and -1% | % Inhibition [17]: 2% and 4% | % Inhibition [18]: -7% and -1% | % Inhibition Average [19]: 6% | % Inhibition Duplicate #1 [19]: 7% | % Inhibition Duplicate #2 [19]: 5% | % Inhibition [20]: 8% and 13% | % Inhibition [21]: 3% and 2% | % Inhibition Average [22]: 4% | % Inhibition Duplicate #1 [22]: 3% | % Inhibition Duplicate #2 [22]: 4% | % Inhibition [23]: -3% and -1% | % Inhibition [24]: 2% and -1%
